How the values were obtained:
[1] = CD thermal transition (triple-helix melting), molar ellipticity at 225 nm; format: physicochemical; conditions: [θ] at 225 nm; for Tm (triple-helical melt): 15-85 °C, 1-5% aqueous HOAc, pH 2.4
Method: Edman degradation sequence analysis was performed on an Applied Biosystems 477A Protein Sequencer/120A Analyzer for both solid-phase and "embedded" (non-covalent) sequencing as described by C. G. Fields et al., Anal. Biochem. 203, 245 (1992) and C. G. Fields et al., Peptide Res. 6, 39 (1993), which are incorporated herein by reference. Fulvene-piperidine concentrations (301 nm) and scanning UV spectra (200-320 nm) were determined with a BECKMAN DU-70 Spectrophotometer. Amino acid analyses were performed on a BECKMAN 6300 Analyzer with a sulfated polystyrene cation-exchange column (0.4 cm×25 cm). Peptides were hydrolyzed with 6N aqueous HCl at 110° C. for 18-48 h. Electrospray mass spectrometric (ES-MS) methods have been described by C. G. Fields et al., Peptide Res. 6, 39 (1993), which is incorporated herein by reference. Fast atom bombardment (FAB) MS was performed on a VG 7070E-HF with a glycerol matrix and laser desorption time-of-flight (LD-TOF) MS with both a breadboard and prototype matrix-assisted TOF mass spectrometer from Millipore Corporation (Milford, Mass.) with a sinapinic acid matrix [saturated solution of 10 mg/mL sinapinic acid dissolved in acetonitrile-H2 O (1:3) containing 0.1% TFA]. THPs were ^3 H-labeled by reductive methylation [N. Jentoft et al., J. Biol. Chem. 254, 4359 (1979)] with NaCNBH3 and [^3 H]formaldehyde, desalted over a Sephadex G-50 column (50×1.5 cm) in PBS, pH 7.4, and analyzed by size-exclusion chromatography (SEC). CD spectroscopy was performed on a Jasco 710 spectropolarimeter using a 100 or 200 μL, 0.1 mm cell. The THP concentrations (determined spectrophotometrically) in 1-5% aqueous HOAc, pH 2.4 were [THP-1]=0.16 mM, [THP-2]=0.084 mM, [THP-3]=0.068 mM, and [THP-4]=0.015 mM. Spectra were recorded by accumulating 5 scans at 0.5 nm intervals (response of 1 sec). Thermal transitions were examined by measuring the molar ellipticity ([θ]) at 225 nm from 15°-85° C.

K1735M4 tumor cell [2] = assay: Melanoma cell spreading on peptide-coated plates; format: cell-based, mouse; conditions: for cell areas averaged (cell spreading): [THP-2]=0.9 μM, [SSP]=2.1 μM, [GPP*]=1.4 μM
Method: (§1) K1735M4 tumor cell adhesion and spreading assays were as described previously [M. K. Chelberg et al., J. Cell Biol. 111, 261 (1990)] with minor alterations. Peptides were dissolved in PBS and adsorbed directly onto 96-well polystyrene Immulon 1 plates (Dynatech Laboratories Inc., Chantlily, Va.) overnight at 37° C. Nonspecific binding sites were blocked with 5 mg/mL bovine serum albumin in adhesion media [Dulbecco's modified Eagle's medium containing 20 mM 4-(2-hydroxyethyl)-1-piperazineethanesulfonic acid] for 2 h at 37° C. Tumor cells were released from tissue culture flasks with 37° C. PBS containing 10 mM EDTA and washed several times with adhesion media. Cells were labeled overnight with 1 μCi/mL [^3 H]thymidine (New England Nuclear, Boston, Mass.) for adhesion assays. Cells were added to the plate wells at a density of 50,000 cells/mL in a total volume of 100 μL and adhered for 1 h at 37° C. For adhesion assays wells were washed several times with adhesion media and remaining cells lysed and radioactivity determined as described [M. K. Chelberg et al., J. Cell Biol. 111, 261 (1990)]. For spreading assays wells were fixed and stained using DiffQuik reagents (Baxter) and photographed with a Nikon MF-15 camera mounted on a Nikon Diaphot inverted microscope at 200× magnification. Cell spreading was quantitated by an Optomax System IV image analyzer equipped with a Hitachi Monitor. The efficiency of peptide adsorption to the Immulon plates was determined as described [M. K. Chelberg et al., J. Cell Biol. 111, 261 (1990)] using ^3 H- or ^125 I-labeled peptide.

K1735M4 tumor cell [3] = assay: Melanoma cell adhesion to peptide-coated Immulon plates; format: cell-based, mouse; conditions: for EC50: coated peptide 0.1-300 μM, cells adhered 1 h at 37 °C, one mole = three peptide chains, read-out: Half maximal melanoma cell adhesion (peptide concentration)
Method: as §1

Substance | Tm (triple-helical melt) [1] [°C] | cell areas averaged (cell spreading) (K1735M4 tumor cell [2]) [mm^2 /μM peptide] | EC50 (K1735M4 tumor cell [3]) [nM] | midpoint of low temperature transition (aggregation) ([1]; 5% aqueous HOAc, pH 2.4, shown by SEC to be aggregation) [°C] | Cell spreading, comparison in words (K1735M4 tumor cell [2]; THP-2 versus SSP and GPP*) | increase in melanoma cell adhesion activity compared with the α1(IV) 1263-1277 sequence alone (K1735M4 tumor cell [3]; THP-2 versus SSP) [fold]
(Gly-Pro-Hyp)8 -Gly-Glu-Phe-Tyr-Phe-Asp-Leu-Arg-Leu-Lys-Gly-Asp-Lys [THP-1] | 53.0 | – | – | – | – | –
(Gly-Pro-Hyp)3 -Gly-Val-Lys-Gly-Asp-Lys-Gly-Asn-Pro-Gly-Trp-Pro-Gly-Ala-Pro [THP-4] | 35.0 | – | – | – | – | –
(Gly-Pro-Hyp)8 [THP-3] | 42.5 | 0.017 | > 100000 | – | – | –
(Gly-Pro-Hyp)8 -Gly-Val-Lys-Gly-Asp-Lys-Gly-Asn-Pro-Gly-Trp-Pro-Gly-Ala-Pro [THP-2] | 58.5 | 0.048 | 1120 | 23.5 | more extensive | 100

From patent publication US5576419A, “Mild solid-phase synthesis of aligned branched triple-helical peptides” (Regents of the University of Minnesota, priority 1995, dated 1996)
